Experimental data from article PMC3973950, “Synthesis of 5-arylidine amino-1,3,4-thiadiazol-2-[(N-substituted benzyol)]sulphonamides endowed with potent antioxidants and anticancer activity induces growth inhibition in HEK293, BT474 and NCI-H226 cells” (Medicinal Chemistry Research, 2013).

system: not listed separately; assay: In vitro cytotoxicity by MTT assay, HEK 293; assay type: cell-based, human; conditions: human, HEK 293 cells, 0.005 μM, read-out: % cytotoxicity (100 − % cell survival) of HEK 293 cell line
Method: (§1) The cancer cell line cultures of HEK 293 ([…]), BT474 (breast cancer cell line) and NCI-H226 (lung cancer) were obtained from Pasteur Institute of India, Coonoor, India, and were cultured in RPMI-1640 and 10 % heat-[…] New born calf serum with antibiotics [penicillin ([…]), streptomycin (100 μg/mL) and amphotericin B (25 μg/mL)]. The cells were maintained at 37 °C in a humidified atmosphere with 5 % CO2 and were subcultured twice a week.
(§2) The monolayer cell culture (100 μL) was trypsinized, and the cell count was adjusted to […] using medium containing 10 % new born calf serum. To each well of the 96-well microtitre plate, the diluted cell suspension (approximately 10,000 cells) (0.1 mL) was added and kept for 24 h in incubator at 37 °C in 5 % CO2 atmosphere for cell monolayer formation. After 24 h, when a partial monolayer was formed at the bottom of the well, the supernatant was flicked off, the monolayer was washed once, and different drugs, i.e. synthesized compounds (100 μL), were added to the cells in microtitre plates. The plates were then incubated at 37 °C for 3 days in 5 % CO2 atmosphere, and microscopic examination was carried out and observations recorded every 24 h. After 72 h, the sample solution in the wells was flicked off; MTT dye ([…]) was added to each well; plates were gently shaken and incubated for 4 h at 37 °C in 5 % CO2 incubator. The supernatant was removed and propanol (50 μL) was added; the plates were gently shaken to solubilize the formed formazan. The absorbance was measured using a microplate reader at a wavelength of 490 nm (Edmondson et al., [1988]; Prasad et al., [2005]; Chiruvella et al., [2008]; Chang et al., [2007]).

Which cytotoxicity at 72 h, 0.005 µM does the source give for `Nc1nnc(S(=O)(=O)NC(=O)c2ccccc2O)s1` [Compound 4d] here?
Its cytotoxicity at 72 h, 0.005 µM is 37.3%.

same assay, conditions: human, HEK 293 cells, 0.015 μM, read-out: % cytotoxicity (100 − % cell survival) of HEK 293 cell line

Which cytotoxicity at 72 h, 0.015 µM does the source give for `Nc1nnc(S(=O)(=O)NC(=O)c2ccccc2O)s1` [Compound 4d] here?
Its cytotoxicity at 72 h, 0.015 µM is 38.3%.

same assay, conditions: human, HEK 293 cells, 0.045 μM, read-out: % cytotoxicity (100 − % cell survival) of HEK 293 cell line

For `Nc1nnc(S(=O)(=O)NC(=O)c2ccccc2O)s1` [Compound 4d], which cytotoxicity at 72 h, 0.045 µM is on record?
The cytotoxicity at 72 h, 0.045 µM was 39.4%.

same assay, conditions: human, HEK 293 cells, 0.13 μM, read-out: % cytotoxicity (100 − % cell survival) of HEK 293 cell line

For `Nc1nnc(S(=O)(=O)NC(=O)c2ccccc2O)s1` [Compound 4d], which cytotoxicity at 72 h, 0.13 µM is on record?
Its cytotoxicity at 72 h, 0.13 µM is 40.5%.

same assay, conditions: human, HEK 293 cells, 0.41 μM, read-out: % cytotoxicity (100 − % cell survival) of HEK 293 cell line

With `Nc1nnc(S(=O)(=O)NC(=O)c2ccccc2O)s1` [Compound 4d] as the molecule, how does the cytotoxicity at 72 h, 0.41 µM read?
The cytotoxicity at 72 h, 0.41 µM was 42.1%.

same assay, conditions: human, HEK 293 cells, 1.23 μM, read-out: % cytotoxicity (100 − % cell survival) of HEK 293 cell line

With `Nc1nnc(S(=O)(=O)NC(=O)c2ccccc2O)s1` [Compound 4d] as the molecule, how does the cytotoxicity at 72 h, 1.23 µM read?
The cytotoxicity at 72 h, 1.23 µM was 42.4%.

same assay, conditions: human, HEK 293 cells, 3.7 μM, read-out: % cytotoxicity (100 − % cell survival) of HEK 293 cell line

With `Nc1nnc(S(=O)(=O)NC(=O)c2ccccc2O)s1` [Compound 4d] as the molecule, how does the cytotoxicity at 72 h, 3.7 µM read?
Its cytotoxicity at 72 h, 3.7 µM is 44.6%.

same assay, conditions: human, HEK 293 cells, 11.11 μM, read-out: % cytotoxicity (100 − % cell survival) of HEK 293 cell line

Which cytotoxicity at 72 h, 11.11 µM does the source give for `Nc1nnc(S(=O)(=O)NC(=O)c2ccccc2O)s1` [Compound 4d] here?
The cytotoxicity at 72 h, 11.11 µM was 47%.

same assay, conditions: human, HEK 293 cells, 33.33 μM, read-out: % cytotoxicity (100 − % cell survival) of HEK 293 cell line

Which cytotoxicity at 72 h, 33.33 µM does the source give for `Nc1nnc(S(=O)(=O)NC(=O)c2ccccc2O)s1` [Compound 4d] here?
The cytotoxicity at 72 h, 33.33 µM was 47.6%.

same assay, conditions: human, HEK 293 cells, 100 μM, read-out: % cytotoxicity (100 − % cell survival) of HEK 293 cell line

With `Nc1nnc(S(=O)(=O)NC(=O)c2ccccc2O)s1` [Compound 4d] as the molecule, how does the cytotoxicity at 72 h, 100 µM read?
Its cytotoxicity at 72 h, 100 µM is 48.1%.

system: BT474 (breast cancer cell line); assay: In vitro cytotoxicity by MTT assay, BT474; assay type: cell-based; conditions: Homo sapiens, BT-474, 0.005 μM, 72 h, read-out: % cytotoxicity (100 − % cell survival) of BT474 cell line
Method: as §1, §2

With `Nc1nnc(S(=O)(=O)NC(=O)c2ccccc2O)s1` [Compound 4d] as the molecule, how does the cytotoxicity at 0.005 µM read?
Its cytotoxicity at 0.005 µM is 23.2%.

same assay, conditions: Homo sapiens, BT-474, 0.015 μM, 72 h, read-out: % cytotoxicity (100 − % cell survival) of BT474 cell line

Which cytotoxicity at 0.015 µM does the source give for `Nc1nnc(S(=O)(=O)NC(=O)c2ccccc2O)s1` [Compound 4d] here?
Its cytotoxicity at 0.015 µM is 24.2%.

same assay, conditions: Homo sapiens, BT-474, 0.045 μM, 72 h, read-out: % cytotoxicity (100 − % cell survival) of BT474 cell line

Which cytotoxicity at 0.045 µM does the source give for `Nc1nnc(S(=O)(=O)NC(=O)c2ccccc2O)s1` [Compound 4d] here?
The cytotoxicity at 0.045 µM was 25.3%.

same assay, conditions: Homo sapiens, BT-474, 0.13 μM, 72 h, read-out: % cytotoxicity (100 − % cell survival) of BT474 cell line

Which cytotoxicity at 0.13 µM does the source give for `Nc1nnc(S(=O)(=O)NC(=O)c2ccccc2O)s1` [Compound 4d] here?
The cytotoxicity at 0.13 µM was 26.2%.

same assay, conditions: Homo sapiens, BT-474, 0.41 μM, 72 h, read-out: % cytotoxicity (100 − % cell survival) of BT474 cell line

For `Nc1nnc(S(=O)(=O)NC(=O)c2ccccc2O)s1` [Compound 4d], which cytotoxicity at 0.41 µM is on record?
The cytotoxicity at 0.41 µM was 26.8%.

same assay, conditions: Homo sapiens, BT-474, 1.23 μM, 72 h, read-out: % cytotoxicity (100 − % cell survival) of BT474 cell line

Which cytotoxicity at 1.23 µM does the source give for `Nc1nnc(S(=O)(=O)NC(=O)c2ccccc2O)s1` [Compound 4d] here?
The cytotoxicity at 1.23 µM was 27.1%.

same assay, conditions: Homo sapiens, BT-474, 3.7 μM, 72 h, read-out: % cytotoxicity (100 − % cell survival) of BT474 cell line

For `Nc1nnc(S(=O)(=O)NC(=O)c2ccccc2O)s1` [Compound 4d], which cytotoxicity at 3.7 µM is on record?
The cytotoxicity at 3.7 µM was 28.1%.

same assay, conditions: Homo sapiens, BT-474, 11.11 μM, 72 h, read-out: % cytotoxicity (100 − % cell survival) of BT474 cell line

Which cytotoxicity at 11.11 µM does the source give for `Nc1nnc(S(=O)(=O)NC(=O)c2ccccc2O)s1` [Compound 4d] here?
Its cytotoxicity at 11.11 µM is 29.4%.

same assay, conditions: Homo sapiens, BT-474, 33.33 μM, 72 h, read-out: % cytotoxicity (100 − % cell survival) of BT474 cell line

For `Nc1nnc(S(=O)(=O)NC(=O)c2ccccc2O)s1` [Compound 4d], which cytotoxicity at 33.33 µM is on record?
The cytotoxicity at 33.33 µM was 30.3%.

same assay, conditions: Homo sapiens, BT-474, 100 μM, 72 h, read-out: % cytotoxicity (100 − % cell survival) of BT474 cell line

With `Nc1nnc(S(=O)(=O)NC(=O)c2ccccc2O)s1` [Compound 4d] as the molecule, how does the cytotoxicity at 100 µM read?
Its cytotoxicity at 100 µM is 32.1%.

system: not listed separately; assay: In vitro cytotoxicity by MTT assay, NCI-H226; assay type: cell-based; conditions: human, NCI-H226 lung cancer cells, 0.015 μM, read-out: % Cytotoxicity (100 − % cell survival) of NCI-H226 cell line
Method: as §1, §2

Which cytotoxicity at 72 h, 0.015 µM does the source give for `Nc1nnc(S(=O)(=O)NC(=O)c2ccccc2O)s1` [Compound 4d] here?
Its cytotoxicity at 72 h, 0.015 µM is 35.1%.

system: NCI-H226 (lung cancer cell line); assay: In vitro cytotoxicity by MTT assay, NCI-H226; assay type: cell-based; conditions: Homo sapiens, NCI-H226, 0.005 μM, 72 h, read-out: % Cytotoxicity (100 − % cell survival) of NCI-H226 cell line
Method: as §1, §2

For `Nc1nnc(S(=O)(=O)NC(=O)c2ccccc2O)s1` [Compound 4d], which cytotoxicity at 0.005 µM is on record?
Its cytotoxicity at 0.005 µM is 34.2%.

same assay, conditions: Homo sapiens, NCI-H226, 0.045 μM, 72 h, read-out: % Cytotoxicity (100 − % cell survival) of NCI-H226 cell line

With `Nc1nnc(S(=O)(=O)NC(=O)c2ccccc2O)s1` [Compound 4d] as the molecule, how does the cytotoxicity at 0.045 µM read?
The cytotoxicity at 0.045 µM was 35.2%.

same assay, conditions: Homo sapiens, NCI-H226, 0.13 μM, 72 h, read-out: % Cytotoxicity (100 − % cell survival) of NCI-H226 cell line

With `Nc1nnc(S(=O)(=O)NC(=O)c2ccccc2O)s1` [Compound 4d] as the molecule, how does the cytotoxicity at 0.13 µM read?
The cytotoxicity at 0.13 µM was 36.3%.

same assay, conditions: Homo sapiens, NCI-H226, 0.41 μM, 72 h, read-out: % Cytotoxicity (100 − % cell survival) of NCI-H226 cell line

Which cytotoxicity at 0.41 µM does the source give for `Nc1nnc(S(=O)(=O)NC(=O)c2ccccc2O)s1` [Compound 4d] here?
Its cytotoxicity at 0.41 µM is 37.3%.

same assay, conditions: Homo sapiens, NCI-H226, 1.23 μM, 72 h, read-out: % Cytotoxicity (100 − % cell survival) of NCI-H226 cell line

For `Nc1nnc(S(=O)(=O)NC(=O)c2ccccc2O)s1` [Compound 4d], which cytotoxicity at 1.23 µM is on record?
The cytotoxicity at 1.23 µM was 38%.

same assay, conditions: Homo sapiens, NCI-H226, 3.7 μM, 72 h, read-out: % Cytotoxicity (100 − % cell survival) of NCI-H226 cell line

Which cytotoxicity at 3.7 µM does the source give for `Nc1nnc(S(=O)(=O)NC(=O)c2ccccc2O)s1` [Compound 4d] here?
Its cytotoxicity at 3.7 µM is 38.3%.

same assay, conditions: Homo sapiens, NCI-H226, 11.11 μM, 72 h, read-out: % Cytotoxicity (100 − % cell survival) of NCI-H226 cell line

With `Nc1nnc(S(=O)(=O)NC(=O)c2ccccc2O)s1` [Compound 4d] as the molecule, how does the cytotoxicity at 11.11 µM read?
The cytotoxicity at 11.11 µM was 39.7%.

same assay, conditions: Homo sapiens, NCI-H226, 33.33 μM, 72 h, read-out: % Cytotoxicity (100 − % cell survival) of NCI-H226 cell line

With `Nc1nnc(S(=O)(=O)NC(=O)c2ccccc2O)s1` [Compound 4d] as the molecule, how does the cytotoxicity at 33.33 µM read?
Its cytotoxicity at 33.33 µM is 42.1%.

same assay, conditions: Homo sapiens, NCI-H226, 100 μM, 72 h, read-out: % Cytotoxicity (100 − % cell survival) of NCI-H226 cell line

For `Nc1nnc(S(=O)(=O)NC(=O)c2ccccc2O)s1` [Compound 4d], which cytotoxicity at 100 µM is on record?
Its cytotoxicity at 100 µM is 42.6%.
